Assay results published in patent publication US20240150377A1, “MODULATORS OF CYSTIC FIBROSIS TRANSMEMBRANE CONDUCTANCE REGULATOR” (VERTEX PHARMACEUTICALS INCORPORATED, priority 2020, published 2024).
pEC50: −log10 of the molar value.

Target: T1, CFTR (Homo sapiens, UniProt P13569, DEL508-508)
T1 construct: endogenous in cells; host or cells: primary human bronchial epithelial cells from CF subjects (F508del/MF-HBE), differentiated at air-liquid interface
Test: HBE2 assay: Ussing chamber assay of CFTR-mediated short-circuit currents
Format: cell-based
Details: F508del/MF-HBE cells, 18-24 hours, 20% human serum; for Emax: read-out: HBE2 Max activity (%)
Summary of the method: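 Corrector activity read as CFTR-dependent ISC (μA/cm^2): peak forskolin current minus post-inhibitor steady state. Measured at 37 °C, voltage clamp at 0 mV, on F508del/MF-HBE epithelia grown >14 days air-liquid interface in Ussing chambers.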

[1] = 3 μM corrector, with 44 nM potentiator
[2] = corrector at a range of concentrations with 44 nM potentiator

T1 sequence (P13569 with tags, fused parts or gaps DEL508-508): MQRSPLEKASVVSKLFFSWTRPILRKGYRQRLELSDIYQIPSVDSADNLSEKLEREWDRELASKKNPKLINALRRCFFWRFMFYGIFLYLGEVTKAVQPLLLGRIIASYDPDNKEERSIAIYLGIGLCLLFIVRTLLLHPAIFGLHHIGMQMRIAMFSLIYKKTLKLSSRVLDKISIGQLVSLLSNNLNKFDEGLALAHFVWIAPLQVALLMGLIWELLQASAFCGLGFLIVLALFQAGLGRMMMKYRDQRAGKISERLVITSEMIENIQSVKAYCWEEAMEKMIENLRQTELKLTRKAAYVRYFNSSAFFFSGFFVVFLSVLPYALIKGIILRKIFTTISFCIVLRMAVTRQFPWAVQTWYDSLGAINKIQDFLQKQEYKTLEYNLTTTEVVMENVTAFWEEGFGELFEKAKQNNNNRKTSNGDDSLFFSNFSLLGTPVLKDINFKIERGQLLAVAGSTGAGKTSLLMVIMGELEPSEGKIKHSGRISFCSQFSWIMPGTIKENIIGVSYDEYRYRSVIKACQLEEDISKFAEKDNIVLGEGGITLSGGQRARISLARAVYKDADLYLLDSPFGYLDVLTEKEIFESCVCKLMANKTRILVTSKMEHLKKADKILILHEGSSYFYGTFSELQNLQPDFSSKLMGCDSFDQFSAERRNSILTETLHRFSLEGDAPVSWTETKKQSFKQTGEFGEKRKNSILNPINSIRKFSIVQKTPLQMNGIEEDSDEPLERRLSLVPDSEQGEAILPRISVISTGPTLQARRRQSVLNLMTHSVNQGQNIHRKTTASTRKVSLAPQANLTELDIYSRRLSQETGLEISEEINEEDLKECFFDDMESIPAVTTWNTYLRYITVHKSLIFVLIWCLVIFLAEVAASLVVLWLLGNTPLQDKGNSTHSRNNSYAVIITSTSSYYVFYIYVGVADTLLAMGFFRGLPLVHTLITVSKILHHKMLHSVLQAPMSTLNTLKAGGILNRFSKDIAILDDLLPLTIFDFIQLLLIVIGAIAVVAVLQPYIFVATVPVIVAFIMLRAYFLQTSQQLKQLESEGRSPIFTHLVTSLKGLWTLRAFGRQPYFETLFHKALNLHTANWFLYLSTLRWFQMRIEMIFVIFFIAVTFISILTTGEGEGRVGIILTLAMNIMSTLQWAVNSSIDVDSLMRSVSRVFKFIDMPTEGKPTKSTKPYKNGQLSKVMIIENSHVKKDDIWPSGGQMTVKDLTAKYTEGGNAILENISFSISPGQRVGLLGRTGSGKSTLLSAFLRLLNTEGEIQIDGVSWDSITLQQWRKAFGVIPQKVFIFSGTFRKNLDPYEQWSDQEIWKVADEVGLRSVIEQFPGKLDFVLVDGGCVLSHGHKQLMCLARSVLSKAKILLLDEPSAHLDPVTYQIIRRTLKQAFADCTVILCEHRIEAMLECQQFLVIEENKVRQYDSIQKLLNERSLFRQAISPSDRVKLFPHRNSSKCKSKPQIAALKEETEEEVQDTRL

Row | SMILES | HBE2 Activity at 3 μM (%) (3 μM, with 44 nM potentiator) | HBE2 Activity at 3 μM (%) [1] | also measured
1 | Cc1cccc(C)c1-c1cc2nc(n1)NS(=O)(=O)c1cccc(c1)C(=O)N(Cc1cncc(N3CCOC4CCCC43)n1)[C@H](CC(C)(C)C)CO2 (some centres unmarked) [Compound 1692] | +++ (+++ is >60+) |  | 
2 | COC[C@@H]1CCN1c1cncc(CN2C(=O)c3cccc(c3)S(=O)(=O)Nc3nc(cc(-c4c(C)cccc4C)n3)OC[C@H]2CC(C)(C)C)n1 [Compound 1549] | +++ (+++ is >60+) |  | pEC50 (with 44 nM potentiator): > 6.00; Emax (with 44 nM potentiator): > 60%
3 | CNC(=O)CC1CCCN1c1cncc(CN2C(=O)c3cccc(c3)S(=O)(=O)Nc3nc(cc(-c4c(C)cccc4C)n3)OC[C@H]2CC(C)(C)C)n1 (some centres unmarked) [Compound 1657] | +++ (+++ is >60+) |  | 
4 | Cc1cccc(C)c1-c1cc2nc(n1)NS(=O)(=O)c1cccc(c1)C(=O)N(Cc1ccc3nc(C(C)C)n(C)c3n1)[C@H](COC(C)C)CO2 [Compound 1930] |  | +++ (+++ is >60+) | 
5 | Cc1cccc(C)c1-c1cc2nc(n1)NS(=O)(=O)c1cccc(c1)C(=O)N(Cc1cnc3cc(C(C)C)n(C)c3n1)[C@H](CC1(C(F)(F)F)CC1)CO2 [Compound 1835] |  | +++ (+++ is >60+) | 
6 | CCCOc1cnc(CN2C(=O)c3cccc(c3)S(=O)(=O)Nc3nc(cc(-c4c(C)cccc4C)n3)OC[C@H]2CCC(C)C)nc1 [Compound 1577] | +++ (+++ is >60+) |  | 
7 | Cc1cccc(C)c1-c1cc2nc(n1)NS(=O)(=O)c1cccc(c1)C(=O)N(Cc1cncc(N3CCC[C@H]3C(C)C)n1)[C@H](CC1CCCC1)CO2 [Compound 1846] |  | +++ (+++ is >60+) | 
8 | Cc1cccc(C)c1-c1cc2nc(n1)NS(=O)(=O)c1cccc(c1)C(=O)N(Cc1cncc(N(C)CC(C)C)n1)[C@H](CC1CC1)CO2 [Compound 1710] | +++ (+++ is >60+) |  | pEC50 (with 44 nM potentiator): > 6.00; Emax (with 44 nM potentiator): > 60%
9 | Cc1cccc(C)c1-c1cc2nc(n1)NS(=O)(=O)c1cccc(c1)C(=O)N(Cc1cncc(N3CCC34CCC4)n1)[C@H](CC(C)(C)C)CO2 [Compound 1604] |  |  | pEC50 (with 44 nM potentiator): > 6.00; Emax (with 44 nM potentiator): > 60%
10 | Cc1cccc(C)c1-c1cc2nc(n1)NS(=O)(=O)c1cccc(c1)C(=O)N(Cc1cncc(N3CCC34CCC4)n1)[C@H](CCC(C)(C)C)CO2 [Compound 1837] |  | +++ (+++ is >60+) | 
11 | Cc1cccc(C)c1-c1cc2nc(n1)NS(=O)(=O)c1cccc(c1)C(=O)N(Cc1ncc(OC(C)C)cn1)[C@H](CC1CCC1)[C@@H](C)O2 [Compound 1567] | +++ (+++ is >60+) |  | 
12 | Cc1cccc(C)c1-c1cc2nc(n1)NS(=O)(=O)c1cccc(c1)C(=O)N(Cc1cncc(N(C)C(C)C)n1)[C@H](CCC(C)(C)C)CO2 [Compound 1788] |  | +++ (+++ is >60+) | 
13 | COC(=O)N(C)c1cccc(CN2C(=O)c3cccc(c3)S(=O)(=O)Nc3nc(cc(-c4c(C)cccc4C)n3)OC[C@H]2CC(C)(C)C)n1 [Compound 1584] | +++ (+++ is >60+) |  | 
14 | Cc1cccc(C)c1-c1cc2nc(n1)NS(=O)(=O)c1cccc(c1)C(=O)N(Cc1cnc3cc(C(C)C)n(C)c3n1)[C@H](CCC1CC1)CO2 [Compound 1828] |  | +++ (+++ is >60+) | 
15 | CC(=O)N1CC2[C@@H](CCN2c2cncc(CN3C(=O)c4cccc(c4)S(=O)(=O)Nc4nc(cc(-c5c(C)cccc5C)n4)OC[C@H]3CC(C)(C)C)n2)C1 (stereo in doubt) [Compound 1663] | +++ (+++ is >60+) |  | 
16 | Cc1cccc(C)c1-c1cc2nc(n1)NS(=O)(=O)c1cccc(c1)C(=O)N(Cc1cncc(N3CC4(CCC4)[C@H]3C(C)C)n1)[C@H](CC(C)(C)C)CO2 [Compound 1752] |  | +++ (+++ is >60+) | 
17 | CC(=O)N[C@H](C)c1cccc(CN2C(=O)c3cccc(c3)S(=O)(=O)Nc3nc(cc(-c4c(C)cccc4C)n3)OC[C@H]2CC(C)(C)C)n1 [Compound 1592] | +++ (+++ is >60+) |  | 
18 | Cc1cccc(C)c1-c1cc2nc(n1)NS(=O)(=O)c1cccc(c1)C(=O)N(Cc1cncc(N(C)C3CCC3)n1)[C@]1(CCC(C)(C)C1)CO2 (single isomer, unassigned) [Compound 1326, 12-[[6-[cyclobutyl(methyl)amino]pyrazin-2-yl]methyl]-6-(2,6-dimethylphenyl)-1′,1′-dimethyl-2,2-dioxo-spiro[9-oxa-2λ^6-thia-3,5,12,19-tetrazatricyclo[12.3.1.14,8]nonadeca-1(18),4(19),5,7,14,16-hexaene-11,3′-cyclopentane]-13-one] |  | +++ (+++ is >60+) | 
19 | Cc1cccc(C)c1-c1cc2nc(n1)NS(=O)(=O)c1cccc(c1)C(=O)N(Cc1cncc(N(C)C3CCC3)n1)[C@H](CC(C)(C)F)CO2 [Compound 1701] |  |  | pEC50 (with 44 nM potentiator): > 6.00; Emax (with 44 nM potentiator): > 60%

More lines, main results first:

Row | HBE2 Activity at 3 μM (%) (3 μM, with 44 nM potentiator) | HBE2 Activity at 3 μM (%) [1] | SMILES | also measured
20 | +++ (+++ is >60+) |  | Cc1cccc(C)c1-c1cc2nc(n1)NS(=O)(=O)c1cccc(c1)C(=O)N(Cc1cncc(N3CCC34COC4)n1)[C@H](CC(C)(C)C)CO2 [Compound 1624] | 
21 |  | +++ (+++ is >60+) | Cc1cccc(C)c1-c1cc2nc(n1)NS(=O)(=O)c1cccc(c1)C(=O)N(Cc1cncc(N3CCCC[C@H]3C)n1)[C@H](CCC(C)(C)C)CO2 [Compound 1725] | pEC50 [2]: > 6.00; Emax (with 44 nM potentiator): > 60%
22 |  | ++ (++ is 30-60%) | CCC(C)(C)C[C@@H]1COc2cc(-c3c(C)cccc3C)nc(n2)NS(=O)(=O)c2cccc(c2)C(=O)N1Cc1cncc(N2CC[C@H]2C)n1 [Compound 1860] | 
23 | +++ (+++ is >60+) |  | CC[C@@H](C)N(C)c1cncc(CN2C(=O)c3cccc(c3)S(=O)(=O)Nc3nc(cc(-c4c(C)cccc4C)n3)OC[C@H]2CC(C)(C)C)n1 (stereo in doubt) [Compound 1672] | pEC50 (with 44 nM potentiator): > 6.00; Emax (with 44 nM potentiator): > 60%
24 |  | +++ (+++ is >60+) | Cc1cccc(C)c1-c1cc2nc(n1)NS(=O)(=O)c1cccc(c1)C(=O)N(Cc1cncc(N3CCCC[C@H]3C)n1)[C@H](COC1CC1)CO2 [Compound 1908] | 
25 | +++ (+++ is >60+) |  | Cc1cccc(C)c1-c1cc2nc(n1)NS(=O)(=O)c1cccc(c1)C(=O)N(Cc1cncc(N3CCCC34CCC4)n1)[C@H](CC(C)(C)C)CO2 [Compound 1625] | 
26 |  | +++ (+++ is >60+) | CCN(c1cncc(CN2C(=O)c3cccc(c3)S(=O)(=O)Nc3nc(cc(-c4c(C)cccc4C)n3)OC[C@H]2CCC(C)C)n1)C1CCC1 [Compound 1764] | 
27 |  | +++ (+++ is >60+) | Cc1cccc(C)c1-c1cc2nc(n1)NS(=O)(=O)c1cccc(c1)C(=O)N(Cc1cncc(N(C)C3CCC3)n1)[C@@H]1CCN(C3CC4(CC4)C3)C[C@H]1O2 [Compound 1767] | 
28 |  | ++ (++ is 30-60%) | Cc1cccc(C)c1-c1cc2nc(n1)NS(=O)(=O)c1cccc(c1)C(=O)N(Cc1cncc(N(C)C3CCC3)n1)[C@H](CC1CC(C)(C)C1)CO2 (stereo in doubt) [Compound 1340, 12-[[6-[cyclobutyl(methyl)amino]pyrazin-2-yl]methyl]-11-[(3,3-dimethylcyclobutyl)methyl]-6-(2,6-dimethylphenyl)-2,2-dioxo-9-oxa-2λ^6-thia-3,5,12,19-tetrazatricyclo[12.3.1.14,8]nonadeca-1(18),4(19),5,7,14,16-hexaen-13-one] | 
29 |  | +++ (+++ is >60+) | Cc1cccc(C)c1-c1cc2nc(n1)NS(=O)(=O)c1cccc(c1)C(=O)N(Cc1cncc(N(C)CC(C)C)n1)[C@H](CC1CCCC1)CO2 [Compound 1845] | 
30 |  | +++ (+++ is >60+) | COC[C@@H]1CCN1c1cncc(CN2C(=O)c3cccc(c3)S(=O)(=O)Nc3nc(cc(-c4c(C)cccc4C)n3)OC[C@H]2CCC(C)(C)C)n1 [Compound 1730] | pEC50 [2]: > 6.00; Emax (with 44 nM potentiator): > 60%
31 |  | ++ (++ is 30-60%) | Cc1cccc(C)c1-c1cc2nc(n1)NS(=O)(=O)c1cccc(c1)C(=O)N(Cc1cncc(N3CCCC3C)n1)[C@H](C1CC(C)(C)C1)CO2 (single isomer, unassigned) [Compound 1337] | 
32 |  | +++ (+++ is >60+) | Cc1cccc(C)c1-c1cc2nc(n1)NS(=O)(=O)c1cccc(c1)C(=O)N(Cc1cncc(N3CCC[C@@H](C)[C@H]3C)n1)[C@H](CC(C)(C)C)CO2 [Compound 1783] | 
33 | +++ (+++ is >60+) |  | Cc1cccc(C)c1-c1cc2nc(n1)NS(=O)(=O)c1cccc(c1)C(=O)N(Cc1cccc(N(C)C3CCC3)n1)[C@H](CC(C)(C)C)CO2 [Compound 1578] | pEC50 (with 44 nM potentiator): > 6.00; Emax (with 44 nM potentiator): > 60%
34 |  | +++ (+++ is >60+) | Cc1cccc(C)c1-c1cc2nc(n1)NS(=O)(=O)c1cccc(c1)C(=O)N(Cc1cnc3cc(C(C)C)n(C)c3n1)[C@H](CC1(C)CCC1)CO2 [Compound 1829] | 
35 | ++ (++ is 30-60%) |  | Cc1cccc(C)c1-c1cc2nc(n1)NS(=O)(=O)c1cccc(c1)C(=O)N(Cc1cncc(N(C)CC(=O)N(C)C)n1)[C@H](CC(C)(C)C)CO2 [Compound 1630] | 
36 |  | +++ (+++ is >60+) | Cc1cccc(C)c1-c1cc2nc(n1)NS(=O)(=O)c1cccc(c1)C(=O)N(Cc1cnc3cc(C(C)C)n(C)c3n1)[C@H](COC1CC1)CO2 [Compound 1889] | 
37 |  | +++ (+++ is >60+) | COC1(CN(C)c2cncc(CN3C(=O)c4cccc(c4)S(=O)(=O)Nc4nc(cc(-c5c(C)cccc5C)n4)OC[C@H]3CC(C)(C)C)n2)CCC1 [Compound 1758] | 
38 | +++ (+++ is >60+) |  | CCN(c1nc(CN2C(=O)c3cccc(c3)S(=O)(=O)Nc3nc(cc(-c4c(C)cccc4C)n3)OC[C@H]2CC(C)(C)C)co1)C1CCC1 [Compound 1645] | 
39 |  | +++ (+++ is >60+) | Cc1cccc(C)c1-c1cc2nc(n1)NS(=O)(=O)c1cccc(c1)C(=O)N(Cc1cncc(N3C[C@H]4CCCC[C@H]43)n1)[C@H](CC(C)(C)C)CO2 [Compound 1800] | 
